In patent US20220127337A1 (priority 2020, published 2022):

What was measured:
SARS-CoV = conditions: Lu W et al. Proc Natl Acad Sci USA 103, 12540-12545 (2006); cited from earlier work
[1] = system: CoV-2 ORF3a-mediated activation of caspase 1; type: cell-based, human

SMILES: [Ba+2] [barium]
- release of SARS-CoV virions (SARS-CoV): block the release of SARS-CoV virions
- CoV-2 ORF3a-mediated activation of caspase 1 [1]: able to curb CoV-2 ORF3a-mediated activation of caspase 1
